Assays:
Experiment in all cases: KINOMEscan
Type in all cases: binding
Conditions in all cases: 1 uM
ALK (L1196M) = ALK (L1196M) (Homo sapiens (Human), UniProt Q9UM73, L1196M)
BRSK1 = BRSK1 (Homo sapiens (Human), UniProt Q8TDC3)
RIPK2 = RIPK2 (Homo sapiens (Human), UniProt O43353)
TIE2 = TIE2 (Homo sapiens (Human), UniProt Q02763)
FRK = FRK (Homo sapiens (Human), UniProt P42685)
p38-alpha = p38-alpha (Homo sapiens (Human), UniProt Q16539)
KIT (D816V) = KIT (D816V) (Homo sapiens (Human), UniProt P10721, D816V)
SgK110 = SgK110 (Homo sapiens (Human), UniProt P0C264)
ERBB3 = ERBB3 (Homo sapiens (Human), UniProt P21860)
PIK3CA (H1047L) = PIK3CA (H1047L) (Homo sapiens (Human), UniProt P42336, H1047L)
CAMK2G = CAMK2G (Homo sapiens (Human), UniProt Q13555)
TEC = TEC (Homo sapiens (Human), UniProt P42680)
MET (M1250T) = MET (M1250T) (Homo sapiens (Human), UniProt P08581, M1250T)
NEK1 = NEK1 (Homo sapiens (Human), UniProt Q96PY6)
[1] = molecular target: RSK1 (Kin.Dom.2-C-terminal) (Homo sapiens (Human), UniProt Q15418)
PIK3C2G = PIK3C2G (Homo sapiens (Human), UniProt O75747)
NIM1 = NIM1 (Homo sapiens (Human), UniProt Q8IY84)
ZAK = ZAK (Homo sapiens (Human), UniProt Q9NYL2)
MYLK = MYLK (Homo sapiens (Human), UniProt Q15746)
JNK2 = JNK2 (Homo sapiens (Human), UniProt P45984)
ACVRL1 = ACVRL1 (Homo sapiens (Human), UniProt P37023)
EPHB6 = EPHB6 (Homo sapiens (Human), UniProt O15197)
EGFR (T790M) = EGFR (T790M) (Homo sapiens (Human), UniProt P00533, T790M)
ABL1-phosphorylated = ABL1-phosphorylated (Homo sapiens (Human), UniProt P00519)
CDK4-cyclinD1 = CDK4-cyclinD1 (Homo sapiens (Human), UniProt P11802)
CAMKK2 = CAMKK2 (Homo sapiens (Human), UniProt Q96RR4)
EGFR (G719S) = EGFR (G719S) (Homo sapiens (Human), UniProt P00533, G719S)
NEK9 = NEK9 (Homo sapiens (Human), UniProt Q8TD19)
TESK1 = TESK1 (Homo sapiens (Human), UniProt Q15569)
ERK2 = ERK2 (Homo sapiens (Human), UniProt P28482)
PKAC-beta = PKAC-beta (Homo sapiens (Human), UniProt P22694)
EGFR (E746-A750del) = EGFR (E746-A750del) (Homo sapiens (Human), UniProt P00533, DEL746-750)
NEK5 = NEK5 (Homo sapiens (Human), UniProt Q6P3R8)
AURKB = AURKB (Homo sapiens (Human), UniProt Q96GD4)
PDPK1 = PDPK1 (Homo sapiens (Human), UniProt O15530)
MAP3K15 = MAP3K15 (Homo sapiens (Human), UniProt Q6ZN16)
LOK = LOK (Homo sapiens (Human), UniProt O94804)
YANK1 = YANK1 (Homo sapiens (Human), UniProt Q8WU08)
IKK-beta = IKK-beta (Homo sapiens (Human), UniProt O14920)
LZK = LZK (Homo sapiens (Human), UniProt O43283)

Sequence of ERBB3 (P21860 20-1342): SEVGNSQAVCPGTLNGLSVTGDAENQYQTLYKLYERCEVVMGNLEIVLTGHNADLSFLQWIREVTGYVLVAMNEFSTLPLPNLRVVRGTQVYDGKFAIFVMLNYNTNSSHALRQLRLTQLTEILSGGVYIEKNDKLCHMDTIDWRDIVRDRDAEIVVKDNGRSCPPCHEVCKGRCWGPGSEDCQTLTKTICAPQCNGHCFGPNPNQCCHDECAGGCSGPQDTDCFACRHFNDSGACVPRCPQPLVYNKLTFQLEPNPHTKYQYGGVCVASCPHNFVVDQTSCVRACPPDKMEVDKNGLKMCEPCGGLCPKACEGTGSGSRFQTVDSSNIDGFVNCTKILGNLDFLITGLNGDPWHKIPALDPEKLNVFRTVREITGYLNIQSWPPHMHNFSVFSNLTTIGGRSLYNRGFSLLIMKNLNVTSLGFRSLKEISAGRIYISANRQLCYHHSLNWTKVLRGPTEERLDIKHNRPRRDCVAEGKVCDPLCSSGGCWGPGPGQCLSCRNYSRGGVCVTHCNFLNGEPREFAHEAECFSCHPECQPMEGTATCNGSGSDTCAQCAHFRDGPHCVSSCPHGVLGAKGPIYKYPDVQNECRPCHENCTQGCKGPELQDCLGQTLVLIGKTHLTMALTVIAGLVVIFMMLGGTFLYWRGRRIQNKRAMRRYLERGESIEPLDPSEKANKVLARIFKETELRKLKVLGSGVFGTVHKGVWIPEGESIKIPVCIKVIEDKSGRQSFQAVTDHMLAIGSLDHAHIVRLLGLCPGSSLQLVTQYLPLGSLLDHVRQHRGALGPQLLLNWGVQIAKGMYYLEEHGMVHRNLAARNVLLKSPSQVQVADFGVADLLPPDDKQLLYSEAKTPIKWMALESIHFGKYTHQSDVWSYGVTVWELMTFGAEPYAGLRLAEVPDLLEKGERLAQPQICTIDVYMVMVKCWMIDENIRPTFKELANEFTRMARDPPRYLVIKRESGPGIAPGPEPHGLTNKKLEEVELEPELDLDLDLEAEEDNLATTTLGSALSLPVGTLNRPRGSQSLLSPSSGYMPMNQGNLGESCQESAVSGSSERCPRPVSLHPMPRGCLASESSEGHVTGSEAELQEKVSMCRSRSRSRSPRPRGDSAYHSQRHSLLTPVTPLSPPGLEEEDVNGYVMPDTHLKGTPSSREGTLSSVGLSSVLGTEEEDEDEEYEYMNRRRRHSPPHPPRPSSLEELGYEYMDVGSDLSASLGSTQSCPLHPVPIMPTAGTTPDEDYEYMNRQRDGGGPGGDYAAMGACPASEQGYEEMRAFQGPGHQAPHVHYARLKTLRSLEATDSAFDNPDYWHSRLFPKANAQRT
Sequence of AURKB (Q96GD4 whole entry): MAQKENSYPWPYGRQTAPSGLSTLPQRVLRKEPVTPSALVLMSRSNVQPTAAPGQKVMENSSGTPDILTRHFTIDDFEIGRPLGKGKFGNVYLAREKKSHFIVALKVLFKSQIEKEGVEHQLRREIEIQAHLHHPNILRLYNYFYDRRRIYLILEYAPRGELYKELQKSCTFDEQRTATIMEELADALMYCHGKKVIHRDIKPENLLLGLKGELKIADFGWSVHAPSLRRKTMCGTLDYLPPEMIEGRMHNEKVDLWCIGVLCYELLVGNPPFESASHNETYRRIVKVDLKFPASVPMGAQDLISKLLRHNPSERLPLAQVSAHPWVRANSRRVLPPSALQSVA
Sequence of PIK3C2G (O75747 whole entry): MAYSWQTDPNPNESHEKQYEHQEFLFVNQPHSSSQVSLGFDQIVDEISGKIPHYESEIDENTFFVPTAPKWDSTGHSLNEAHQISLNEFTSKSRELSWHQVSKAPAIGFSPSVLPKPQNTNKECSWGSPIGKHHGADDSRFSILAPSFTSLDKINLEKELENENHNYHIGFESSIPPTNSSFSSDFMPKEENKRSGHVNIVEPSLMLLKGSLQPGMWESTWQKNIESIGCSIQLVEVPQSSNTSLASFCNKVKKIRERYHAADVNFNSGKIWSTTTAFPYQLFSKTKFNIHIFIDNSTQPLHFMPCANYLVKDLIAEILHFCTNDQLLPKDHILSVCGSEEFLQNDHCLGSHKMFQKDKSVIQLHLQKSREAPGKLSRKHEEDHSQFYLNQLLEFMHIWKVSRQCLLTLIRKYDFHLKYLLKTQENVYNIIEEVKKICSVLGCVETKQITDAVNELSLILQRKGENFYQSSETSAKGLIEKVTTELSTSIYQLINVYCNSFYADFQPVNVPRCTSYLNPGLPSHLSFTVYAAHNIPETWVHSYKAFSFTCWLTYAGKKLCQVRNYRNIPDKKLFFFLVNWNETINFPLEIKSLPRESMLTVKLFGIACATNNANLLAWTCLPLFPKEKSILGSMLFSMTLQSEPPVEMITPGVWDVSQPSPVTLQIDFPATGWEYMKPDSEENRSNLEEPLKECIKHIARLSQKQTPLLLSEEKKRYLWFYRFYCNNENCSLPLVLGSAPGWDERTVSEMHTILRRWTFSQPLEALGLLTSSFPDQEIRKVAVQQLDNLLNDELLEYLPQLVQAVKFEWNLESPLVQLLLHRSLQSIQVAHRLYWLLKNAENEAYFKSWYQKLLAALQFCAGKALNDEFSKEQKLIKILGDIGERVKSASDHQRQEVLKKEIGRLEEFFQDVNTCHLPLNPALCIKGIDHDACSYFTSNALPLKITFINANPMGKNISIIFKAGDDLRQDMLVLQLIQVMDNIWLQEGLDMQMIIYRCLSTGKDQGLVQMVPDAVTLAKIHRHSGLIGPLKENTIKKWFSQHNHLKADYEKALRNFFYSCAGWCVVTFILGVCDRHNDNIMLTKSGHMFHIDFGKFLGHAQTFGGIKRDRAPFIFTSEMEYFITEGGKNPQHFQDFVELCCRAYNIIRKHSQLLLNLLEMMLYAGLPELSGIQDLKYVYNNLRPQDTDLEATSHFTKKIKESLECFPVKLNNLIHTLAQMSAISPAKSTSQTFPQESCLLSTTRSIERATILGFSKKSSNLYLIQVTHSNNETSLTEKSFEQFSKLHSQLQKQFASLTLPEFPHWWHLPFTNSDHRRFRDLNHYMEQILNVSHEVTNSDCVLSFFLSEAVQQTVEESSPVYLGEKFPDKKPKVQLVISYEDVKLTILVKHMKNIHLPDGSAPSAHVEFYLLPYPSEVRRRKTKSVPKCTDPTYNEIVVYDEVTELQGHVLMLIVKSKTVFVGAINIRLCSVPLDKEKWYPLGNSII
Sequence of p38-alpha (Q16539 whole entry): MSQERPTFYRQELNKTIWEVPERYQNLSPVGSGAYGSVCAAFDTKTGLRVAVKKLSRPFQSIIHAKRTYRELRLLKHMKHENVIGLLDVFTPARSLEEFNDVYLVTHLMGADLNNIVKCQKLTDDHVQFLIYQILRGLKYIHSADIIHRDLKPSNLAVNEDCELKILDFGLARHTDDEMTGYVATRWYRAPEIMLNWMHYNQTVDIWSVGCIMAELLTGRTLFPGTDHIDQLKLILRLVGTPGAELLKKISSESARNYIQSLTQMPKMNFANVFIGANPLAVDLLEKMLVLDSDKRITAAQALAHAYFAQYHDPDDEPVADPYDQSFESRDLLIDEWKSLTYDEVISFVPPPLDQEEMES
Sequence of FRK (P42685 whole entry): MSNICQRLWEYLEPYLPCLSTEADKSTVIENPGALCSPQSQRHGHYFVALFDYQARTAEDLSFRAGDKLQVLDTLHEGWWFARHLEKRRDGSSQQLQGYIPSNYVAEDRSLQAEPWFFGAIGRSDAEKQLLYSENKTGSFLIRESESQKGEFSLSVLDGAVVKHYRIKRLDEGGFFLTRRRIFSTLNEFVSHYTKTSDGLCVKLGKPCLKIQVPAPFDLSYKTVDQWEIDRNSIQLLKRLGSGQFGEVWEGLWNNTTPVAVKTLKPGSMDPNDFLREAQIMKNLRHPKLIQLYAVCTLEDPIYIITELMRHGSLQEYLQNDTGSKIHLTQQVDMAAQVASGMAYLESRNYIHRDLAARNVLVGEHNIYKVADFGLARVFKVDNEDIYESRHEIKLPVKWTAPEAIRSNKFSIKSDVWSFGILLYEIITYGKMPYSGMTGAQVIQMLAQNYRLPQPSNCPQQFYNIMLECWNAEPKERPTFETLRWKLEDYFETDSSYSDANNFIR
Sequence of IKK-beta (O14920 whole entry): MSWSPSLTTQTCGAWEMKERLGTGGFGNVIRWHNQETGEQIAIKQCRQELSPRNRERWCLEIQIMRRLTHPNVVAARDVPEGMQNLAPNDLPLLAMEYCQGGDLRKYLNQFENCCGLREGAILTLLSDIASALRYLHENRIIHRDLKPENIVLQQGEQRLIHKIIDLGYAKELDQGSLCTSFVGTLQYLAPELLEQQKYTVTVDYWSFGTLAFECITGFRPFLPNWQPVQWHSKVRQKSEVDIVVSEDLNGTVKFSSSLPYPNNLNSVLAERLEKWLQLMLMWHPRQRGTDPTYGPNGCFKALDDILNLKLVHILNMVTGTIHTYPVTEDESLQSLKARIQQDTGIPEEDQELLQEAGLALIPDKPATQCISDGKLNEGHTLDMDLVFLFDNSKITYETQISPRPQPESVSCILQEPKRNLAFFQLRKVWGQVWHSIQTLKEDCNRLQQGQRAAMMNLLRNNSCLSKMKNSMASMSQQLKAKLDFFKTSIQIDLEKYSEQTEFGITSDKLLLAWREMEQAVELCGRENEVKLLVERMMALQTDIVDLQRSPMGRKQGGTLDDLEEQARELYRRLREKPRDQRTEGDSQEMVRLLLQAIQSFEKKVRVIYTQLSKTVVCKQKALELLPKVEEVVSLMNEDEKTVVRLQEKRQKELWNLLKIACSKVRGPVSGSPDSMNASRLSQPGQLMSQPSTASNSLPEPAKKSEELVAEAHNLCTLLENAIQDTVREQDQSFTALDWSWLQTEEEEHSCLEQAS
Sequence of RSK1 (Kin.Dom.2-C-terminal) (Q15418 418-675): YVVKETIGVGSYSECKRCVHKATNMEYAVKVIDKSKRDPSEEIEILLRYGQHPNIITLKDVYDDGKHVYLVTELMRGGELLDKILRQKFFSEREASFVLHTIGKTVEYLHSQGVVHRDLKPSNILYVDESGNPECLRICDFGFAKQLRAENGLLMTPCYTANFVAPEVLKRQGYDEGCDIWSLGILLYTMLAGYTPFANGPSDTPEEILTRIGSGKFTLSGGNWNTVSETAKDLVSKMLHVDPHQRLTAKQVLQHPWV

## COc1ccc(N2C(=O)N(c3c(C)cccc3C)Cc3cnc(Nc4ccc(N5CCN(C)CC5)cc4)nc32)c(OC)c1 [HG-11-136-01]
ALK (L1196M)
  KINOMEscan ALK (L1196M): 8.2
BRSK1
  KINOMEscan BRSK1: 100
RIPK2
  KINOMEscan RIPK2: 0.1
TIE2
  KINOMEscan TIE2: 0.75
FRK
  KINOMEscan FRK: 0.05
p38-alpha
  KINOMEscan p38-alpha: 1
KIT (D816V)
  KINOMEscan KIT (D816V): 0.2
SgK110
  KINOMEscan SgK110: 8.6
ERBB3
  KINOMEscan ERBB3: 0
PIK3CA (H1047L)
  KINOMEscan PIK3CA (H1047L): 96
CAMK2G
  KINOMEscan CAMK2G: 100
TEC
  KINOMEscan TEC: 2.6
MET (M1250T)
  KINOMEscan MET (M1250T): 46
NEK1
  KINOMEscan NEK1: 88
[1]
  KINOMEscan RSK1 (Kin.Dom.2-C-terminal): 9.7
PIK3C2G
  KINOMEscan PIK3C2G: 87
NIM1
  KINOMEscan NIM1: 42
ZAK
  KINOMEscan ZAK: 1.2
MYLK
  KINOMEscan MYLK: 86
JNK2
  KINOMEscan JNK2: 20
ACVRL1
  KINOMEscan ACVRL1: 16
EPHB6
  KINOMEscan EPHB6: 0.7
EGFR (T790M)
  KINOMEscan EGFR (T790M): 0.7
ABL1-phosphorylated
  KINOMEscan ABL1-phosphorylated: 0
CDK4-cyclinD1
  KINOMEscan CDK4-cyclinD1: 9
CAMKK2
  KINOMEscan CAMKK2: 100
EGFR (G719S)
  KINOMEscan EGFR (G719S): 0.2
NEK9
  KINOMEscan NEK9: 81
TESK1
  KINOMEscan TESK1: 0
ERK2
  KINOMEscan ERK2: 96
PKAC-beta
  KINOMEscan PKAC-beta: 66
EGFR (E746-A750del)
  KINOMEscan EGFR (E746-A750del): 1.8
NEK5
  KINOMEscan NEK5: 98
AURKB
  KINOMEscan AURKB: 26
PDPK1
  KINOMEscan PDPK1: 100
MAP3K15
  KINOMEscan MAP3K15: 40
LOK
  KINOMEscan LOK: 0
YANK1
  KINOMEscan YANK1: 0.2
IKK-beta
  KINOMEscan IKK-beta: 80
LZK
  KINOMEscan LZK: 4
